The subject of one assay is Bifidobacterium. The assay is described as follows: Stimulation of growth: enumeration of Bifidobacterium in vitro in human fecal homogenate culture. Conditions: 1% test substance or mixture, human fecal homogenate in diluted WC broth, incubated up to 24 hours, control 1.0 × 10^6. The format is cell-based, Bifidobacterium spp. As for the experimental part:
(§1) The stimulation of growth of micro-organisms has been studied by enumerating bifidobacterium and lactobacilli in vitro in the presence of various test substances:
(§2) Aliquots (1 mL) of human fecal homogenates (10 g per 100 mL diluent) were added to diluted WC broth (diluted 50:50 with 0.05M phosphate buffer) to which were added the test mixtures and a lactobacillus or bifidobacterium strain. For each of the combinations, parallel tubes were prepared with one set being inoculated with Bifidobacterium spp or Lactobacillus spp. All mixtures were then incubated for up to 24 hours and bacterial numbers determined. The results are presented in Tables 1 and 2 (amount of extract calculated on active content): […]

In a further assay the test system is Lactobacterium. The assay is described as follows: Stimulation of growth: enumeration of lactobacilli in vitro in human fecal homogenate culture. In kind it is cell-based, Lactobacillus spp. The following applies: 1% test substance or mixture, human fecal homogenate in diluted WC broth, incubated up to 24 hours, control 2.8 × 10^5. The procedure:
as §1, §2

On to `OC[C@H]1O[C@@H](O[C@H]2[C@H](O)[C@@H](O)[C@@H](O[C@]3(CO)O[C@H](CO)[C@@H](O)[C@@H]3O)O[C@@H]2CO)[C@H](O)[C@@H](O)[C@H]1O` [C2, Lactosucrose], for which the figures for the “Bacterial numbers CFU/ml” value in the assay on Bifidobacterium and in the assay on Lactobacterium were 1.1 × × 10^7 CFU/ml and 1.1 × × 10^6 CFU/ml, respectively.

On to Lactolin [C3], for which the “Bacterial numbers CFU/ml” value in the assay on Bifidobacterium worked out at 1.6 × × 10^7 CFU/ml; in the assay on Lactobacterium it was 1.5 × × 10^6 CFU/ml.

For the origin of these results see patent publication US20080268024A1, “Compositions for Oral and/or Topical Administration” (priority 2004, published 2008).
